# Measurements: BindingDB's records for patent US9212173 (Genentech, 2015)
# Target: Leucine-rich repeat serine/threonine-protein kinase 2 (Homo sapiens, UniProt Q5S007)
# Assay: Lanthascreen Binding Assay
# Description: This assay was used to determine a compound's potency in inhibiting activity of LRRK2 by determining, Kiapp, IC50, or percent inhibition values. In 384 well proxiplates F black, shallow well plates LRRK2, Eu-anti-GST-antibody, Alexa Fluor Kinase tracer 236 and test compound were incubated together.Binding of the Alexa Fluor tracer to a kinase is detected by addition of a Eu-labeled anti-GST antibody. Binding of the tracer and antibody to a kinase results in a high degree of FRET, whereas displacement of the tracer with a kinase inhibitor results in a loss of FRET. Assay conditions and materials used were as follows: Final Assay Conditions: GST-LRRK2 G2019S 10 nM Eu-anti-GST-antibody 2 nM Kinase tracer 236 8.5 nM Kinase reaction time: 1 hour Temperature: ambient Total volume: 15 ul DMSO 1% Materials: 384 well proxiplates F black shallow cat# 6008260 well Perkin Elmer Kinase: LRRK2 G2019S, Invitrogen cat # PV4882(LOT 567054A).
# Leucine-rich repeat serine/threonine-protein kinase 2, sequence (Q5S007 whole entry): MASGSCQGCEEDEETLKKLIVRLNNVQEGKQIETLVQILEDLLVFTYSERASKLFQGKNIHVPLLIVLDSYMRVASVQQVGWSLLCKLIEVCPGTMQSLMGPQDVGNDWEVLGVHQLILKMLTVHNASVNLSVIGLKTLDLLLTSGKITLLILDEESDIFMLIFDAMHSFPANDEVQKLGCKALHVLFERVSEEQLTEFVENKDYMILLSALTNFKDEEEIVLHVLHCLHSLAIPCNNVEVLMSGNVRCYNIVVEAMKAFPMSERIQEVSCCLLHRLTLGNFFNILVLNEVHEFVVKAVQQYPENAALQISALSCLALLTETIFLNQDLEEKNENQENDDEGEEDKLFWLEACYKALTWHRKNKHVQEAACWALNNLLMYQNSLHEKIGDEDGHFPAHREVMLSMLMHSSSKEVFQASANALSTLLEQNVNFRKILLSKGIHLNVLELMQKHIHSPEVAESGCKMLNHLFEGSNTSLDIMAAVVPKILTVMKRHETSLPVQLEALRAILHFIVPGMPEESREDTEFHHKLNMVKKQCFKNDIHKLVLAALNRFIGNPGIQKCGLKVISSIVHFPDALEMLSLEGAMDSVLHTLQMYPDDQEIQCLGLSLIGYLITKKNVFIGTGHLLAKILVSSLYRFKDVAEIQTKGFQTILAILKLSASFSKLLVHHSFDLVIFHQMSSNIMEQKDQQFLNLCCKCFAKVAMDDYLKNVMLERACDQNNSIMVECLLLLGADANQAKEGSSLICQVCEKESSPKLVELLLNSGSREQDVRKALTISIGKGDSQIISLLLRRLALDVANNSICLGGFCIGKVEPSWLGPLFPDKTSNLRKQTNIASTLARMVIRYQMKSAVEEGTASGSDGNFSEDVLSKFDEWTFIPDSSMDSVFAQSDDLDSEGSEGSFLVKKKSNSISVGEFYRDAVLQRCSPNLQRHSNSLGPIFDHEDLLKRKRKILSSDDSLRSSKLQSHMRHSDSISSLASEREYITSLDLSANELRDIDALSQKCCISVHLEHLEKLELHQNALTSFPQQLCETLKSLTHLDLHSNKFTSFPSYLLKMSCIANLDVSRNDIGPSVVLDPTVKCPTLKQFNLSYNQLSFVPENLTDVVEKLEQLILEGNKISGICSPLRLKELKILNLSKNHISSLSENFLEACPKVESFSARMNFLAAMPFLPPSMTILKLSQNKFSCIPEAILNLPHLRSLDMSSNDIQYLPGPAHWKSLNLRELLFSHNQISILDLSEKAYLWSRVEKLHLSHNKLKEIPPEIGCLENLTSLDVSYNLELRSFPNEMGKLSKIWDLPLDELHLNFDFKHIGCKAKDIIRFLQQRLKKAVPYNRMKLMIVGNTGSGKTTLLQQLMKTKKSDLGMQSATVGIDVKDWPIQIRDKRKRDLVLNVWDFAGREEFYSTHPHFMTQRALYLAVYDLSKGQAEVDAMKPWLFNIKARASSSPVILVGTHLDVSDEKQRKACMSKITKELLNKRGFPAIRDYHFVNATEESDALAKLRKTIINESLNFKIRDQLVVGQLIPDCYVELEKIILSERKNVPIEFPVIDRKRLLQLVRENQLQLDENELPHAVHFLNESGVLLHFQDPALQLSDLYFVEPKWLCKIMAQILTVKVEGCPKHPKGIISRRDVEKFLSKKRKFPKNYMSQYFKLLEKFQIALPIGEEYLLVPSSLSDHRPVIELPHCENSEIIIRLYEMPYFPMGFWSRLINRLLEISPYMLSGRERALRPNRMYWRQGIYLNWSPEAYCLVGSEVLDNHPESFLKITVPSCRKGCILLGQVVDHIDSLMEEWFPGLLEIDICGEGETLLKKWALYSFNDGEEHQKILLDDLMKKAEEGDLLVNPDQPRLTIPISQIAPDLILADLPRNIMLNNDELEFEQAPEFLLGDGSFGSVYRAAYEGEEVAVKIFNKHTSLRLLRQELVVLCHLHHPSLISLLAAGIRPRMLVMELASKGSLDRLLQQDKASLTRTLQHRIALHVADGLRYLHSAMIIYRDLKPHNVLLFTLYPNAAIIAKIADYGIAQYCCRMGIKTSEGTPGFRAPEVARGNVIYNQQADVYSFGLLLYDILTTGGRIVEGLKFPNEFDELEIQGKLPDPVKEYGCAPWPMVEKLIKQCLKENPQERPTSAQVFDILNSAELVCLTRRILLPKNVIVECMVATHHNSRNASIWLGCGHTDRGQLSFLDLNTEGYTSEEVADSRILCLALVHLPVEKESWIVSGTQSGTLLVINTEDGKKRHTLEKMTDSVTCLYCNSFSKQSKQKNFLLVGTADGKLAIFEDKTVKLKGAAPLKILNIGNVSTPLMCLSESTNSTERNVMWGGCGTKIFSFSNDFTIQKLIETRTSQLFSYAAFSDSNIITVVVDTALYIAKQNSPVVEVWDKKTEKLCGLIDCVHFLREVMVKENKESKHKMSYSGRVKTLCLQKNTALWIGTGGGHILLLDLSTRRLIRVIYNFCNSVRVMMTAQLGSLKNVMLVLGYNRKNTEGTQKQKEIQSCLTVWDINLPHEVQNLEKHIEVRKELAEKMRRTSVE
row,Ki,SMILES
1,155 nM,"CCn1cnnc1C(C)(C)n1cc(Nc2ncc(C(F)(F)F)c(NC)n2)c(Cl)n1 [US9212173, 11]"
2,1.1 nM,"CCNc1nc(Nc2cn(C(C)(C)c3ncn(CC)n3)nc2Cl)ncc1C(F)(F)F [US9212173, 14]"
